Reference: US20130210911A1, “METHOD AND COMPOSITION FOR TREATING A DISEASE OR CONDITION RELATED TO OREXIN RECEPTOR 1, OREXIN RECEPTOR 2, SOMATOSTATIN RECEPTOR 2 OR DOPAMINE D2L RECEPTOR” (CENTER LABORATORIES, INC., priority 2009, published 2013)
Where a name gives a salt, the structure may show the parent alone. Read-outs that look alike come from different tables or passages of the source.

Columns and labels:
[1] = test system: Melatonin receptor; experiment: Melatonin receptor binding activity; settings: data not shown
Text: (§1) Pharmacol. 58:254-264; and Spedding. (1984) M. Eur J Pharmacol. 83:211. […] 11(4):433-436. […] 75(6):2590-2601. […] 329:161-184.

[2] = biological target: T1, Orexin receptor 2 (Homo sapiens, UniProt O43614); experiment: biochemical; settings: for nH (Hill coefficient): human orexin receptor 2 binding
T1 sequence (O43614 1-444): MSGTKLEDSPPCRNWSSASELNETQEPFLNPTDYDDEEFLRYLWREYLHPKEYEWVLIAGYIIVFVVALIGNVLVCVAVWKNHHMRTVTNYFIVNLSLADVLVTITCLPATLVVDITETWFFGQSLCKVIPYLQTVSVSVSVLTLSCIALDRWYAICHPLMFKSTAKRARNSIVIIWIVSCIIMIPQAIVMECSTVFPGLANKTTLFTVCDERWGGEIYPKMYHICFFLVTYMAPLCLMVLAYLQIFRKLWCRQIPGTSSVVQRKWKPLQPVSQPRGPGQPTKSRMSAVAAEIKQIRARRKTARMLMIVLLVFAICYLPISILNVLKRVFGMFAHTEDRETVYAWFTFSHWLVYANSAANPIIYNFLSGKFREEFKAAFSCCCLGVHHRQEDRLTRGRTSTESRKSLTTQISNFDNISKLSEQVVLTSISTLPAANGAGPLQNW
Experimental: (§2) Binding activity was evaluated to assess the selectivity of verapamil on various receptors. The binding activity of the reported receptors was analyzed using the following known methods. Primary screening were performed in duplicate and presented in semi-quantitative data (e.g., IC50, Ki and nH). Where presented, IC50 values were determined by a non-linear, least squares regression analysis using MathIQ™ (ID Bussiness Solutions Ltd., UK). […] Where presented, the Hill coefficient (nH), defining the slope of the competitive binding curve, was calculated using MathIQ™.
(§3) Orexin receptor 1 or 2 binding affinity was examined using the methods disclosed by Kukkonen et al., (2002) Am J Physiol Cell Physiol. 283:C1567-C1591; and Langmead et al., (2004) Br J Pharmacol. 141(2):340-346. […] Pharmacol. 58:254-264; and Spedding. (1984) M. Eur J Pharmacol. 83:211. Somaostatin receptor 2 binding activity was estimated by the method described by Feniuk et al., (1993) Br J Pharmacol. 110:1156-1164. Adenosine receptor binding activity was examined using the method described by Varani et al., (1996) Br J Pharmacol. 117:1693-1701. Bradykinin receptor binding activity was examined using the methods described by Horlick et al., (1999) Immunopharmacology 43(2-3):169-177; and Phagoo et al., (2001) J Pharmacol Exp Ther 298(1):77-85. Calcium channel (N-type) binding activity was examined using the method disclosed by Moresco et al., (1990) Neurobiol of Aging. 11(4):433-436. Cannabinoid receptor binding activity was examined using the method disclosed by Reggio et al., (1998) J Med Chem 41(26):5177-5187. […] Estrogen receptors (including ERα and ERβ) were examined using the method disclosed by Obourn et al., (1993) Biochem 32:6229-6236. GABA receptor (including GABAA and GABAB1A,) binding activity was examined using methods disclosed by Lewin et al., (1989) Mol Pharmacol 35:189-194; Maksay G. (1993) Eur J Pharmacol 246:255-260; Enna and Snyder, (1977) Mol Pharmacol. 13:442-453; Martini et al., (1983) J Neurochem. […] Leptin receptor binding activity was examined using the method disclosed by Fong et al., (1998) Mol Pharmacol 53:234-240. […] 75(6):2590-2601. Tachykinin receptor binding activity was examined using the method disclosed by Patacchini and Maggi, (1995) Arch Int Pharmacodyn. 329:161-184. Vanilloid receptor binding activity was examined using the methods disclosed by Szallasi et al., (1993) J Pharmacol Exp Ther. 267(2):728-733. Melatonin receptor binding activity was examined using the methods disclosed by Beresford et al., (1998) J Pharmacol Exp Ther 285(3):1239-1245; and Paul et al., (1999) J Pharmacol Exp Ther 290(1):334-340. Serotonin receptor binding activity was examined using the methods disclosed by Bonhaus et al., (1995) Br J Pharmacol 115:622-628; and Saucier and Albert (1997) J. Neuorchem 68:1998-2011.

[3] = biological target: T2, Orexin receptor 1 (Homo sapiens, UniProt O43613); experiment: biochemical; settings: for nH (Hill coefficient): human orexin receptor 1 binding
T2 sequence (O43613 1-425): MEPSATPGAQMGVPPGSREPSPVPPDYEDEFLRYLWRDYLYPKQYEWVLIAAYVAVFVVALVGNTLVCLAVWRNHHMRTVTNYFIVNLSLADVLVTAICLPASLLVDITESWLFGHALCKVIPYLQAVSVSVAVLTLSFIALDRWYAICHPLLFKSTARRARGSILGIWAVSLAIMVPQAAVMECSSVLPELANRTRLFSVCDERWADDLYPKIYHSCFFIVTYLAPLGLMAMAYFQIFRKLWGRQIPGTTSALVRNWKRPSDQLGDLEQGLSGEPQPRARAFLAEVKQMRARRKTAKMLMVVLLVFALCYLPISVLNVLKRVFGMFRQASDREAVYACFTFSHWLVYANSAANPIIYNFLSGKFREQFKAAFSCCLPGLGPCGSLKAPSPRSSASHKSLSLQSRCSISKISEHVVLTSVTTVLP
Experimental: as §2, §3

[4] = test system: Sodium Channel, Site 2; experiment: Sodium channel, site 2 binding assay; design: species or system rat
[5] = biological target: N-type calcium channel (Rattus norvegicus, UniProt Q02294); experiment: Calcium channel (N-type) binding activity; settings: data not shown
Sequence of N-type calcium channel (P54287 whole entry): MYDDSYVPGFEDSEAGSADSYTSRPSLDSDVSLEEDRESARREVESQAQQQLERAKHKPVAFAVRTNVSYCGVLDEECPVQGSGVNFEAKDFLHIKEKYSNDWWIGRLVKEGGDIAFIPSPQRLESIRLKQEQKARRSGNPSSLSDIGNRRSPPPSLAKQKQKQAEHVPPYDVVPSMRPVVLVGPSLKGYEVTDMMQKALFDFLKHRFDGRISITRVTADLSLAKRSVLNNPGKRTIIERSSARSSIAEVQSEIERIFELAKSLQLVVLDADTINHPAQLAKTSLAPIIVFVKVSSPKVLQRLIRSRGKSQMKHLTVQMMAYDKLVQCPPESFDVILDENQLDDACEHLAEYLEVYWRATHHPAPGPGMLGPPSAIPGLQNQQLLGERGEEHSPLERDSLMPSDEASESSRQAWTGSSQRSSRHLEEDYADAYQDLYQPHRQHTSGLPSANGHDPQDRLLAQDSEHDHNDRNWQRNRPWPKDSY
Sequence of N-type calcium channel (P54290 945-1091, further chain): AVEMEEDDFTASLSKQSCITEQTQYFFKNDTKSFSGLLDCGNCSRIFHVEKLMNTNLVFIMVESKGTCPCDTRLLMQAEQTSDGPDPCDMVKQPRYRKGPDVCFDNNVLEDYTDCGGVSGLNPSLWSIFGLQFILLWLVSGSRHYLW
Sequence of N-type calcium channel (Q02294 whole entry): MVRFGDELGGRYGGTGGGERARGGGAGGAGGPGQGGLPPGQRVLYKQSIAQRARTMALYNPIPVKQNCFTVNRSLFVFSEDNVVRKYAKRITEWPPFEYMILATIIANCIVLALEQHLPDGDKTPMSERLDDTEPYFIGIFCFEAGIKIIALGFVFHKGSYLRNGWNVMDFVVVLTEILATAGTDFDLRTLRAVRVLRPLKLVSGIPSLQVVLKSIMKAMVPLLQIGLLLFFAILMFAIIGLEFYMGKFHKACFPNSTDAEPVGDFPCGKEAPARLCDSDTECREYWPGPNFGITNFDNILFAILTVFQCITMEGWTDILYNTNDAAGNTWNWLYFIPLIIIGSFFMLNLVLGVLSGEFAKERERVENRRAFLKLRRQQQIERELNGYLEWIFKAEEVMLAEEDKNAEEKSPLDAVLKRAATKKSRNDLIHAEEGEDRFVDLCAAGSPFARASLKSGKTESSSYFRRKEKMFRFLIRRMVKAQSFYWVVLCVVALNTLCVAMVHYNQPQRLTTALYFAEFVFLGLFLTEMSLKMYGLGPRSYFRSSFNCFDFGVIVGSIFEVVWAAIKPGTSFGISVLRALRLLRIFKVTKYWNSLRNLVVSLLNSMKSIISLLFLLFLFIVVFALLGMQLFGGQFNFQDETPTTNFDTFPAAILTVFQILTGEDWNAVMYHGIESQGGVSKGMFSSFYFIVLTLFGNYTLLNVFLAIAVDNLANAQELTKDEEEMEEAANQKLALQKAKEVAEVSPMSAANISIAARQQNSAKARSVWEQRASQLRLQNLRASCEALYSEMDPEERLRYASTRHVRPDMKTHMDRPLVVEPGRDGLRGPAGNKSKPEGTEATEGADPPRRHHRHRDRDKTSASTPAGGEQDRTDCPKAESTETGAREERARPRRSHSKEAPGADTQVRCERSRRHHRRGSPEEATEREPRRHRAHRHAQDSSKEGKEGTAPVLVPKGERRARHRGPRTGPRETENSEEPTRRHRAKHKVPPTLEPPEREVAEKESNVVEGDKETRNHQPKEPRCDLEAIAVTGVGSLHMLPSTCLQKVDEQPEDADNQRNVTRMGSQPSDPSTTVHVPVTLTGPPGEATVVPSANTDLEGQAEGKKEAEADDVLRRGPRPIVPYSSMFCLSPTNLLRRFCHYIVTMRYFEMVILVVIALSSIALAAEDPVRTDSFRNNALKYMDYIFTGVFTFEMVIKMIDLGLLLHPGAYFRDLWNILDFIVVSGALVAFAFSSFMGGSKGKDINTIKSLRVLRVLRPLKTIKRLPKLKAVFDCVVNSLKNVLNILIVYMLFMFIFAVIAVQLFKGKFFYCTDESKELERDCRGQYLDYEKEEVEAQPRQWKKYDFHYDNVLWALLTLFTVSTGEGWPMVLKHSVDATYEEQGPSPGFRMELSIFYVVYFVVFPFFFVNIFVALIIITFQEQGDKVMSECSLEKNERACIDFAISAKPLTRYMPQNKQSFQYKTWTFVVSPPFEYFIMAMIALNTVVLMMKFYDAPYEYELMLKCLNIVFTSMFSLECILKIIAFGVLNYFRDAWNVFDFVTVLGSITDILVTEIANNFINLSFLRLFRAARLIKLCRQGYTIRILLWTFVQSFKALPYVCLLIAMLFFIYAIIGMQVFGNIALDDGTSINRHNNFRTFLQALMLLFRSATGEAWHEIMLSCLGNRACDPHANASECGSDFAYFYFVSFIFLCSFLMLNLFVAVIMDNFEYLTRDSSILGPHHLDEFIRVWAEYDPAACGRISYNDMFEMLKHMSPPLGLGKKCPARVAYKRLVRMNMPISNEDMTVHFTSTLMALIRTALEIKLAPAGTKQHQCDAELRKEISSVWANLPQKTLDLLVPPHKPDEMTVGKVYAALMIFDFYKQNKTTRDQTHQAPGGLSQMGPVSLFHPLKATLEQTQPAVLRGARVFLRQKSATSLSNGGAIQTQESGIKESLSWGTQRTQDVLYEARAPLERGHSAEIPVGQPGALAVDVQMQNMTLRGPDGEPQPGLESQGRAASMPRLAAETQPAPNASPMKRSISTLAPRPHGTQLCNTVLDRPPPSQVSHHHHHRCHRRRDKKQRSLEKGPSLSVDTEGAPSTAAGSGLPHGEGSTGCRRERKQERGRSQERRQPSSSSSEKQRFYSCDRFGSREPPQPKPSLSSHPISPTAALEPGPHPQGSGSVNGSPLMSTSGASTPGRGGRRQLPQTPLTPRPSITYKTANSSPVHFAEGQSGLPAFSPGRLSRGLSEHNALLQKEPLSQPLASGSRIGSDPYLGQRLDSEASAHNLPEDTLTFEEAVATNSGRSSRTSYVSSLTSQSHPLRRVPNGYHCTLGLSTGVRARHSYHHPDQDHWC
Sequence of N-type calcium channel (P54290 25-944, further chain): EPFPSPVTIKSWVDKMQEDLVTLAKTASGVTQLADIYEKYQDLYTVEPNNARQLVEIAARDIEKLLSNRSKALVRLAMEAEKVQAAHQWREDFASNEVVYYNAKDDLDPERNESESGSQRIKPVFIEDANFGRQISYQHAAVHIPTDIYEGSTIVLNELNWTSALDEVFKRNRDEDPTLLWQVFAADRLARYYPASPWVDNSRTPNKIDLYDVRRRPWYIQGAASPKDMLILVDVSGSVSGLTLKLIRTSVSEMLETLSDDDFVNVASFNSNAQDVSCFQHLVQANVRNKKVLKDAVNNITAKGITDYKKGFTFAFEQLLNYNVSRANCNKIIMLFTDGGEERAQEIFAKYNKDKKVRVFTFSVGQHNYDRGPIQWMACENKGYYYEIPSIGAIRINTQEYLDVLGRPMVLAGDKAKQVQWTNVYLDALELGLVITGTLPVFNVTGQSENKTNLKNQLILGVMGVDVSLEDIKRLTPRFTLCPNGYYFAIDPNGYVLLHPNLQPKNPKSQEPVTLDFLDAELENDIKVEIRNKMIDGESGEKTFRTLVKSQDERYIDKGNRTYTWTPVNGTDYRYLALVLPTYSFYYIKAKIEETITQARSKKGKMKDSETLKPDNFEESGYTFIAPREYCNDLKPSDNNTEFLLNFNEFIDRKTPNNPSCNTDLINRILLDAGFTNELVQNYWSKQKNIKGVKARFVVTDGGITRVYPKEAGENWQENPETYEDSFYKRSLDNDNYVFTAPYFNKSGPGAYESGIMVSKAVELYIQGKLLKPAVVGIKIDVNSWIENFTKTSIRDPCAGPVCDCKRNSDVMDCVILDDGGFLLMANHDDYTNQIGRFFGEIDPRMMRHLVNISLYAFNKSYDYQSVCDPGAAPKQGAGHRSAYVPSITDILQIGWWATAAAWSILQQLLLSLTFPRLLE
Text: as §1

[6] = test system: Serotonin receptor; settings: data not shown
Experimental: as §2
Orexin receptor 1 or 2 binding affinity was examined using the methods disclosed by Kukkonen et al., (2002) Am J Physiol Cell Physiol. 283:C1567-C1591; and Langmead et al., (2004) Br J Pharmacol. 141(2):340-346. […] Pharmacol. 58:254-264; and Spedding. (1984) M. Eur J Pharmacol. 83:211. Somaostatin receptor 2 binding activity was estimated by the method described by Feniuk et al., (1993) Br J Pharmacol. 110:1156-1164. Adenosine receptor binding activity was examined using the method described by Varani et al., (1996) Br J Pharmacol. 117:1693-1701. Bradykinin receptor binding activity was examined using the methods described by Horlick et al., (1999) Immunopharmacology 43(2-3):169-177; and Phagoo et al., (2001) J Pharmacol Exp Ther 298(1):77-85. […]

[7] = biological target: Dopamine D2L receptor (Homo sapiens, UniProt P14416)
Sequence of Dopamine D2L receptor (P14416 whole entry): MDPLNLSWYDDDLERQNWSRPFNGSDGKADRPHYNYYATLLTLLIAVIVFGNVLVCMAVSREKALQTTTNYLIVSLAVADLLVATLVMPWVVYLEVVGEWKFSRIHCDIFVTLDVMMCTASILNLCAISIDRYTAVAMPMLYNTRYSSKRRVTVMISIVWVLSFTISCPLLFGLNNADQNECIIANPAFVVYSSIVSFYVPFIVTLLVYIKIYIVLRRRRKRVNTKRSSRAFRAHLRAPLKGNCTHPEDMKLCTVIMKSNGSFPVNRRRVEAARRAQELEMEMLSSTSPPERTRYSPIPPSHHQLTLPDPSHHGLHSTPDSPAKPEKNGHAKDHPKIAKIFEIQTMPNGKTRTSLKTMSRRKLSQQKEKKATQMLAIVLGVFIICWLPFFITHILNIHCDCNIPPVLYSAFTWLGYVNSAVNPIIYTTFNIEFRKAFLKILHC
Text: (§4) Orexin receptor 1 or 2 binding affinity was examined using the methods disclosed by Kukkonen et al., (2002) Am J Physiol Cell Physiol. 283:C1567-C1591; and Langmead et al., (2004) Br J Pharmacol. 141(2):340-346. […] Pharmacol. 58:254-264; and Spedding. (1984) M. Eur J Pharmacol. 83:211. Somaostatin receptor 2 binding activity was estimated by the method described by Feniuk et al., (1993) Br J Pharmacol. 110:1156-1164. Adenosine receptor binding activity was examined using the method described by Varani et al., (1996) Br J Pharmacol. 117:1693-1701. Bradykinin receptor binding activity was examined using the methods described by Horlick et al., (1999) Immunopharmacology 43(2-3):169-177; and Phagoo et al., (2001) J Pharmacol Exp Ther 298(1):77-85. Calcium channel (N-type) binding activity was examined using the method disclosed by Moresco et al., (1990) Neurobiol of Aging. 11(4):433-436. Cannabinoid receptor binding activity was examined using the method disclosed by Reggio et al., (1998) J Med Chem 41(26):5177-5187. […] Estrogen receptors (including ERα and ERβ) were examined using the method disclosed by Obourn et al., (1993) Biochem 32:6229-6236. […]

[8] = biological target: Somatostatin receptor 2 (Cavia porcellus, UniProt A0A286XKC5); experiment: Somatostatin tissue assay; settings: guinea pig tissue
Sequence of Somatostatin receptor 2 (A0A286XKC5 1-368): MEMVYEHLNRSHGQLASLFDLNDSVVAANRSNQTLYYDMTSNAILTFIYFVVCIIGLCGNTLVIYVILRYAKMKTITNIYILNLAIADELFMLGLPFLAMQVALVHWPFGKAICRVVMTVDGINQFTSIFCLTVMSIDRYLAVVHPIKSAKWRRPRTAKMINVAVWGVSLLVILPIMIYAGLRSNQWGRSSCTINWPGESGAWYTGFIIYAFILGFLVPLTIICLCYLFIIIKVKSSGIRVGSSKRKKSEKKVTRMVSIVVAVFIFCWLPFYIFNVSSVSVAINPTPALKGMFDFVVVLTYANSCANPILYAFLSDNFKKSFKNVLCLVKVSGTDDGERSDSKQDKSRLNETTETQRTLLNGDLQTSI
Text: as §4

| SMILES | binding (in words) [1] | inhibition at 100 µM [2] [%] | nH (Hill coefficient) [2] | inhibition at 100 µM [3] [%] | nH (Hill coefficient) [3] | % Inhibition ([4]; rat sodium channel site 2, conc. 3 μM) [%] | binding (in words) [5] | binding (in words) [6] | ANT. (%) (antagonist) ([7]; conc. 3 μM) | AG. (%) (agonist) ([8]; conc. 0.3 μM) | inhibition at 300 µM [3] [%] | % Inhibition ([4]; rat sodium channel site 2, conc. 10 μM) [%] | ANT. (%) (antagonist) ([7]; conc. 10 μM) | AG. (%) (agonist) ([8]; conc. 3 μM) |
| --- | --- | --- | --- | --- | --- | --- | --- | --- | --- | --- | --- | --- | --- | --- |
| COc1ccc(CCN(C)CCC[C@@](C#N)(c2ccc(OC)c(OC)c2)C(C)C)cc1OC [(S)-(−)-verapamil hydrochloride] | significant binding | 79 | 1.33 | 58 | 1.27 | 75 | significant binding | significant binding | 66 | 61 | – | – | – | – |
| COc1ccc(CCN(C)CCC[C@](C#N)(c2ccc(OC)c(OC)c2)C(C)C)cc1OC [(R)-(+)-verapamil hydrochloride] | significant binding | 56 | 1.81 | – | 1.31 | – | significant binding | significant binding | – | – | 57 | 72 | 58 | 69 |
